This passage reports inhibition and IC50 results from US6121431A, “Nucleoside derivatives” (Medivir AB, priority 1990, dated 2000).

The subject of one experiment is H9 cells. Nature of the experiment: Cellular toxicity on H9 cells (inhibition of cell multiplication). It counts as cell-based. The settings on record: Homo sapiens, 1 mM, 48 h. The method, then: Test II. Cellular toxicity
H9 cells, 2×10^7 cells per plate, are incubated in RPMI-1640 medium containing 10% fetal calf serum, 70 mg/l penicillin, 100 mg/l streptomycin and 10 mM hepes, in absence or presence of test compounds. The number of cells per plate is determined after 48 h. Cells incubated in the absence of test compounds then underwent two cell division cycles.
F5000 cells, which are human embryo cells, 1×10^5 cells per plate, are incubated in Eagle's minimal essential medium, supplemented with Earle's sals, non-essential amino acids, 10% fetal calf serum, 10 mM hepes, 70 mg/l penicillin and 100 mg/l streptomycin, in absence or presence of test compounds. The number of cells per plate is determined after 48 h. Cells incubated in the absence of test compounds underwent one cell division cycle.
Usually inhibition stands for the relative decrease from the control value, in per cent. Higher therefore signals a response far below the control. Compound `Nc1ccn([C@H]2C[C@H](CO)[C@@H](CO)O2)c(=O)n1` [1-2',3'-Dideoxy-3'-C-(hydroxymethyl)-β-D-erythropentofuranosyl]-cytosine] returned an inhibition at 1000 µM of 50%.

In another experiment the test system is human immuno deficiency virus. As to the kind of experiment: Effect of compounds of the formula I on HIV in H9 cells (HIV multiplication in cell culture, HIV antigen containing cells). The settings on record: Human immunodeficiency virus 1, HIV (HTLV-IIIB), 6-7 days, 37° C., read-out: Concentration for 50% inhibition (IC50) of human immuno deficiency virus multiplication in cell culture. It counts as cell-based. The method, then:
Test I. Effect of compounds of the formula I on HIV in H9 cells
HIV Infection of H9 Cells
H9 cells, 10^5 cells per well on a 24 well plate, suspended in 2 ml RPMI-medium containing 10% fetal calf serum […] penicillin, 10 mg/mil streptomycin sulfate and 2 mg/ml polybrene are exposed to HIV (HTLV-IIIB) and different concentrations of the test compounds. The plates are incubated at 37° C. in 5% CO2 for 6-7 days. The contents in each well is then homogenized with a pipette and transferred to a centrifuge tube. After centrifugation for 10 min at 1500 rpm the supernatant is removed and the cell pellet is analyzed by fixing in methanol on glass plates. Human HIV positive serum diluted 1:80 or 1:160 is added and incubated for 30 min at 37° C. The plate is then washed with phosphate-buffered saline (PBS) containing Ca^2+ and Mg^2+. Sheep antihuman conjugate (FITC) is added and after a new incubation the plate is again washed with PBS. Contrast staining is done with Evans blue and after drying the frequency of HIV antigen containing cells is determined in a microscope.
As to `Nc1ccn([C@H]2C[C@H](CO)[C@@H](CO)O2)c(=O)n1` [1-2',3'-Dideoxy-3'-C-(hydroxymethyl)-β-D-erythropentofuranosyl]-cytosine], the IC50 was 0.01 µM.
As to `Cc1cn([C@@H]2C[C@H](CO)[C@@H](CO)O2)c(=O)[nH]c1=O` [1-(2',3'-Dideoxy-3'-C-(hydroxymethyl)-α-D-erythro-pentafuranosyl]thymine], the IC50 turned out to be 10 µM.
As for `Nc1ccn([C@@H]2C[C@H](CO)[C@@H](CO)O2)c(=O)n1` [1-[2',3'-Dideoxy-3'-C-(hydroxymethyl)-α-D-erythro-pentafuranosyl]cytosine], the IC50 turned out to be 5 µM.
For `Cc1cn([C@H]2C[C@H](CO)[C@@H](CO)O2)c(=O)[nH]c1=O` [1-[2',3'-Dideoxy-3'-C-(hydroxymethyl)-β-D-erythro-pentofuranosyl]-thymine], the IC50 amounted to 5 µM.
The same measure, in the same setting: the result for `Nc1ncnc2c1ncn2[C@@H]1C[C@H](CO)[C@@H](CO)O1` [9-[2',3'-Dideoxy-3'-C-(hydroxymethyl)-α-D-erythropentofuranosyl]-adenosine] reads 10 µM.
